Data set [1] deals with CXCL10 and CCL5 chemokine production in MDA-MB-436 EV cells. As to the kind of experiment: Chemokine expression after small molecule inhibitors of ATM, ATR and DNAPK. The data set is classed as cell-based. As to conditions: DDRD positive cells (MDA-MB-436 EV), compared to the DMSO control, FIG. 16. On the procedure:
(§1) The product of Reverse Transcription was diluted 1:10 in Nuclease Free Water (NFW). Each 10 μl PCR reaction, consisted of 0.5 μl of 10 μM Forward primer, 0.5 μl of 10 μM Reverse primer, 5 μl of 2× LightCycler® 480 SYBR Green I Master mix (Roche), 1.5 μl NFW and 2.5 μl diluted Reverse Transcription product. These 10 μl reactions were pipetted into wells of a LightCycler® 480 multiwell 96 plate (Roche), the plate was then sealed using clear adhesive film (Roche). The plate was placed into the LightCycler® 480 (Roche) and run with the following protocol. (95° C. for 10 mins, 45 cycles of; 95° C. for 15 secs, 55° C. for 30 secs and 72° C. for 30 secs, finishing with a melt curve for confirmation of primer specificity. All qPCR data was analysed using the LightCycler® 480 software provided by Roche. For analysis, the Cp value from a technical duplicate was calculated and the relative amount of a gene was calculated Cp value to an in-run standard curve. Each mean value was then normalised to the mean concentration of the housekeeping gene PUM1 within the corresponding sample, by dividing the concentration of the target gene by the concentration of the house keeping gene. Relative expression refers to the gene expression levels that have been normalised to the housekeeping gene and made relative to the associated control samples. From these normalized values, the fold changes for each gene were calculated and the average of three individual fold changes were derived from three independent experimental triplicates. The unpaired, two-tailed students T-test available on GraphPad Prism 5.0 software was used to detect statistical significance.
(§2) For analysis of effects of ATM, ATR and DNAPK on cytokine expression, cells were seeded in six well plates at ˜60% confluency. Following incubation overnight, small molecule inhibitors of ATM (Ku60019, Selleck Chem) at a dose of 1 μm, ATR (ETP46464, Selleck Chem) at a dose of 5 μm and DNAPK (Nu7441, Selleck Chem) at a dose of 5 μm were added. At 24 hours, RNA and protein samples were obtained for analysis. For analysis of the effects of DNA damaging agents and paclitaxel on cytokine expression, cells were seeded in six well plates at ˜60% confluency. Following incubation overnight, IC50 doses of Cisplatin and Paclitaxel (obtained from fresh Pharmacy stock) and Hydroxyurea (Sigma Aldrich) were added for 24 hours to 48 hours. At the appropriate timepoint, RNA and protein samples were obtained for analysis.

In data set [2] the test system is HCC1937 parental and HCC1937-BR cells. The following applies: HCC1937 BRCA1 mutant cell-line relative to BRCA1 corrected cell-line (HCC1937-BR); FIG. 8C.
Method: The cell-lines were routinely maintained in RPMI-1640 medium supplemented with 50 U penicillin/ml, 50 μg streptomycin/ml, 2 mM glutamine, 1 mM Sodium Pyruvate and 20% (v/v) fetal bovine serum (FBS). The HCC1937-EV and HCC937-BR cell-lines also required 0.2 ml/mg geneticin. Cell-lines were cultured at 37° C. with a humidified atmosphere of 5% CO2.
Twenty-four hours following seeding the cells were exposed to medium containing increasing doses of drug. Cell medium was replenished every 4-5 days. After 12-14 days the cells were fixed in methanol, stained with crystal violet and counted. The percentage survival of control for a given dose was calculated as the plating efficiencies for that dose divided by the plating efficiencies of vehicle-treated cells. Survival curves and half maximal inhibitory concentration (IC50) values were calculated using GraphPad Prism.
The subject of data set [3] is HeLa, HCC1937 EV and MDA-MB-436 EV cells. The data set is described as follows: Cell cycle analysis (propidium iodide, flow cytometry). As to conditions: anti-mitotic agent treatment; FIG. 15. The data set is classed as cell-based. The protocol: as §2
Cells were trypsinised and fixed in 70% ethanol, incubated with RNase A and propidium iodide (P1) and analysed using a BD FACSCalibur™ (BD Biosciences, CA, USA). Data was analysed using Flow Jo software to perform cell cycle analysis.

In data set [4] the test system is CXCL10 and CCL5 expression. The data set is described as follows: qRT-PCR of chemokine expression after DNA damaging agents, paclitaxel or nocodazole. It counts as cell-based. On the procedure: Reverse transcription was performed using the First Strand cDNA synthesis kit (Roche). 500 ng of RNA was reverse transcribed according to manufacturer's instructions. Exon-spanning qPCR primers were designed using Roche Universal Probe Library Assay Design Centre and were used at a concentration of 0.5 μM. The following primer sequences were used:
To preform absolute quantification from qPCR, we used a standard curve method. The efficiency of each primer set was derived from the standard curve using the following equation: E=10^(−1/slope)
as §1
For analysis of effects of ATM, ATR and DNAPK on cytokine expression, cells were seeded in six well plates at ˜60% confluency. Following incubation overnight, small molecule inhibitors of ATM (Ku60019, Selleck Chem) at a dose of 1 μm, ATR (ETP46464, Selleck Chem) at a dose of 5 μm and DNAPK (Nu7441, Selleck Chem) at a dose of 5 μm were added. At 24 hours, RNA and protein samples were obtained for analysis. For analysis of the effects of DNA damaging agents and paclitaxel on cytokine expression, cells were seeded in six well plates at ˜60% confluency. […]
For orientation: Quantitative PCR measures a nucleic acid by following its amplification.

In another data set the test system is PDL1. The data set is described as follows: PDL1 expression in RKO cells after Interferon-γ, qPCR and western blot. The data set is classed as cell-based. As to conditions: for PDL1 gene expression levels (fold change): RKO Par, RKO Fanc C and RKO Fanc G cells, FIG. 27B. On the procedure:
as §1, with “Relative expression refers to the gene expression levels that have been normalised to the housekeeping gene and made relative to the associated control samples.” left out, “The unpaired, two-tailed students T-test available on GraphPad Prism 5.0 software was used to detect statistical significance.” left out
Adherent cells formed whole cell lysates suspended in RIPA buffer containing phosphatase and protease inhibitors (Roche Inhibitor cocktails, Germany). […] Protein was quantified using the BCA Assay (Pierce, Rockford, Ill., USA) according to manufacturer's instructions using a plate reader. […] Results were then visualized and recorded using Luminata Crescendo Western HRP substrate (Millipore, UK) and an alpha imager.
The cytotoxic effects of lymphocytes on cancer cells was measured using LIVE/DEAD® Cell-Mediated Cytotoxicity Kit (Life technologies, Paisley, UK.) RKO parental and Fanc G cells were trypsinised, counted and stained with green-fluorescent membrane stain DiOC18 in PBS at a concentration of 2 μl of stain per ml. […]

In data set [5] the test system is cytosolic DNA in HeLa cells. As to the kind of experiment: PicoGreen fluorescent staining of double-stranded DNA, confocal microscopy. It counts as cell-based. As to conditions: IC50 doses, FIG. 19C. An excerpt:
We probed cytosolic fractions of DDRD positive cells MDA-436-EV and +BRCA1, and HCC1937-EV and +BRCA1 cells for the presence of Histone H3, and found Histone H3 protein expression was increased in the repair deficient lines (EV) (FIG. 19A, top panel of blots). […] PicoGreen fluorescent staining was used to detect double-stranded DNA (ds-DNA). […] This increase in cytosolic DNA was however not observed in response to treatment with Paclitaxel (HeLa+Paclitaxel IC50) (FIG. 19C).

For data set [6], the system named is RKO Parental and RKO FANCG-/- cells. The data set is described as follows: Lymphocyte (PBMC) mediated cytotoxicity, LIVE/DEAD Cell-Mediated Cytotoxicity Kit. It counts as cell-based. The following applies: pre-treatment of cancer cells, PBMC ratio 5:1, p-value<0.05, FIG. 27A. The protocol:
The cytotoxic effects of lymphocytes on cancer cells was measured using LIVE/DEAD® Cell-Mediated Cytotoxicity Kit (Life technologies, Paisley, UK.) RKO parental and Fanc G cells were trypsinised, counted and stained with green-fluorescent membrane stain DiOC18 in PBS at a concentration of 2 μl of stain per ml. Cells were incubated with the stain for 20 minutes at 37° C. before being seeded into 12 well plates at a density of 1×10^5 cells per well and left to adhere overnight. The next day PMBCs were counted and added to RKO cell cultures at the ratios indicated. For 1:1 ratio 1×10^5 PBMCs were added, for 5:1 ratio 5×10^5 PBMCs were added. The co-cultures were incubated for 4 hours before cells were collected for analysis by flow cytometry. A BD FACSCalibur™ (BD Biosciences, CA, USA) was used for the analysis of samples and Flow Jo software was used for data analysis. Cells were treated with interferon-γ at a concentration of 20 ng/ml for 16 hours.

For the molecule `O=c1cc(N2CCOCC2)oc2c(-c3cccc4c3sc3ccccc34)cccc12` [Nu7440], the “CXCL10 and CCL5 chemokine production / expression levels” value is given as “No significant decreases” in data set [1] and “significantly increased” in data set [1] (listed as DNAPKi).

For the molecule `O=C(c1cc(Cc2n[nH]c(=O)c3ccccc23)ccc1F)N1CCCNCC1` [KU0058948], the “sensitivity to PARP-1 inhibitor (clonogenic survival)” value in data set [2] is “more sensitive”.

As for `COC(=O)Nc1nc2ccc(C(=O)c3cccs3)cc2[nH]1` [Nocodazole], the cell cycle arrest result in data set [3] is “arrest in the M phase”. The “mRNA expression of CXCL10” value in data set [4] (anti-mitotic agent treatment, FIG. 15A) is “reduced mRNA expression of CXCL10”.

With “Interferon-γ: Interferon-γ, cells treated at 20 ng/ml for 16 hours”, the “PDL1 protein level (western blotting)” value in the data set with PDL1 (RKO Par and RKO Fanc G cells, pre-treatment, FIG. 27C) is “enhanced PDL1 levels”. The “PDL1 gene expression levels (fold change)” value in the data set on PDL1 is given as “significantly increases PDL1 gene expression levels”; in the data set with PDL1 (listed as IFN-γ) it was “drives PDL-1 expression in DDRD+”.

As to `CC(=O)O[C@H]1C(=O)[C@@]2(C)[C@H]([C@H](OC(=O)c3ccccc3)[C@]3(O)C[C@H](OC(=O)[C@H](O)[C@@H](NC(=O)c4ccccc4)c4ccccc4)C(C)=C1C3(C)C)[C@]1(OC(C)=O)CO[C@@H]1C[C@@H]2O` [Paclitaxel], in data set [5], the “cytosolic DNA (PicoGreen, confocal microscopy)” value is “not observed”. The “CXCL10 and CCL5 relative expression” value in data set [4] (HeLa, HCC1937 EV and MDA-MB-436 EV cells, IC-50 doses, compared to DMSO control, FIG. 14) is “not significantly increased”.

With `C[C@@H]1CN(CC(=O)Nc2ccc3c(c2)Cc2cccc(-c4cc(=O)cc(N5CCOCC5)o4)c2S3)C[C@H](C)O1` [Ku60019], in data set [1], the “CXCL10 and CCL5 chemokine production / expression levels” value is “No significant decreases”.

Regarding `CC(C)(C#N)c1ccc(N2C(=O)OCc3cnc4ccc(-c5cnc6ccccc6c5)cc4c32)cc1` [ETP-46464], the “CXCL10 and CCL5 chemokine production / expression levels” value in data set [1] is “No significant decreases”.

B1: Interferon-γ: Interferon-γ, cells treated at 20 ng/ml for 16 hours (protein, UniProt P01579 24-161, looked up)
Interferon gamma: QDPYVKEAENLKKYFNAGHSDVADNGTLFLGILKNWKEESDRKIMQSQIVSFYFKLFKNFKDDQSIQKSVETIKEDMNVKFFNSNKKKRDDFEKLTNYSVTDLNVQRKAIHELIQVMAELSPAAKTGKRKRSQMLFRG
As to B1, the “lymphocyte mediated cytotoxicity, differential between RKO FANCG-/- and RKO Parental cells” value in data set [6] is “extends the differential cytotoxicity”; in data set [6] (listed as IFN-γ) it was “protects against PBMC mediated cytotoxicity”.

(Values after patent publication US11254986B2, “Gene signature for immune therapies in cancer” (ALMAC DIAGNOSTICS LIMITED, priority 2015, dated 2022).)
